Square brackets hold non-standard residues; d marks the D form. Peptide text beside a SMILES is read from it. * marks the point of attachment. His(Trt) = N[C@@H](Cc1cn(C(c2ccccc2)(c2ccccc2)c2ccccc2)cn1)C(=O)O; Biotin = O=C1N[C@H]2[C@H](CS[C@H]2CCCCC(=O)*)N1; dPhe(4-F) = N[C@H](Cc1ccc(F)cc1)C(=O)O; Lauroyl = CCCCCCCCCCCC(=O)*; Octanoyl = CCCCCCCC(=O)*
Target: T1, GPR39 (Homo sapiens, UniProt O43194)
T1 sequence (O43194 1-453): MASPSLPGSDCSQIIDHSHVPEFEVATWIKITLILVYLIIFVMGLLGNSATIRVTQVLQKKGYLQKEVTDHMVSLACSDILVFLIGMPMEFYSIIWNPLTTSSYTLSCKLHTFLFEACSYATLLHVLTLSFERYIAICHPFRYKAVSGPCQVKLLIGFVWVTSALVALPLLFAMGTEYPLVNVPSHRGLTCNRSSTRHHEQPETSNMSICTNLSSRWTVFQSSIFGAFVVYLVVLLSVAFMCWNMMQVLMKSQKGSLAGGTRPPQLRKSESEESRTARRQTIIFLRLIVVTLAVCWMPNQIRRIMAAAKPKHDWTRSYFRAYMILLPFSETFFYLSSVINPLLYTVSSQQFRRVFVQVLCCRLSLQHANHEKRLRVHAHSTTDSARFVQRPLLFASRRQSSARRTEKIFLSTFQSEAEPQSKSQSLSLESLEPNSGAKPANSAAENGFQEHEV
Experiment: luciferase assay system (SRE luciferase reporter gene, CV-1 cells expressing GPR39)
Format: cell-based
Parameters: expressed in transfected cells; host or cells: CV-1 fibroblast cell line (Korea Cell Line Bank), adenoviral transduction at 50 MOI
Settings: not given

ECmax (−fold induction over basal) [fold induction over basal] | Compound
13.4 ± 0.02 | CCCCCCCC(=O)NCCCC[C@H](NC(=O)[C@@H](N)Cc1cn(C(c2ccccc2)(c2ccccc2)c2ccccc2)cn1)C(=O)N[C@@H](Cc1ccccc1)C(=O)N[C@@H](Cc1ccc(O)cc1)C(=O)N[C@@H](CO)C(=O)N[C@@H](Cc1c[nH]cn1)C(=O)N[C@@H](CCC(N)=O)C(=O)N[C@@H](CCC(N)=O)C(=O)N[C@@H](C)C(=O)N[C@@H](CCCNC(=N)N)C(=O)N[C@@H](Cc1ccccc1)C(N)=O [HKFY-40, (S)-2-((2S,5S,8S,11S,14S)-2-((1H-imidazol-4-yl)methyl)-14-((S)-2-amino-3-(1-trityl-1H-imidazol-4-yl)propanamido)-11-benzyl-8-(4-hydroxybenzyl)-5-(hydroxymethyl)-4,7,10,13,20-pentaoxo-3,6,9,12,19-pentaazaheptacosanamido)-N1-((S)-5-amino-1-(((S)-1-(((S)-1-(((S)-1-amino-1-oxo-3-phenylpropan-2-yl)amino)-5-guanidino-1-oxopentan-2-yl)amino)-1-oxopropan-2-yl)amino)-1,5-dioxopentan-2-yl)pentanediamide] (H-[His(Trt)]K(Octanoyl)FYSHQQARF-NH2)
20.26 ± 2.7 | CCCCCCCC(=O)NCCCC[C@H](NC(=O)[C@@H](N)Cc1cn(C(c2ccccc2)c2ccc(OC)cc2)cn1)C(=O)N[C@@H](Cc1ccccc1)C(=O)N[C@@H](Cc1ccc(O)cc1)C(=O)O (stereo partly drawn) [HKFY-20, N2-(Nt-((4-methoxyphenyl)(phenyl)methyl)-L-histidyl)-N6-octanoyl-L-lysyl-L-phenylalanyl-L-tyrosine]
16.5 ± 0.02 | CCCCCCCC(=O)NCCCC[C@H](NC(=O)[C@@H](N)Cc1cn(C(c2ccccc2)(c2ccccc2)c2ccccc2)cn1)C(=O)N[C@@H](Cc1ccccc1)C(=O)N[C@@H](Cc1ccc(O)cc1)C(=O)N[C@@H](CO)C(=O)N[C@@H](CC(=O)O)C(=O)N[C@@H](CCC(N)=O)C(=O)N[C@@H](CCC(N)=O)C(=O)N[C@@H](C)C(=O)N[C@@H](CCCNC(=N)N)C(=O)N[C@@H](Cc1ccccc1)C(N)=O [HKFY-38, (3S,6S,9S,12S,15S)-15-((S)-2-amino-3-(1-trityl-1H-imidazol-4-yl)propanamido)-12-benzyl-3-(((6S,9S,12S,15S)-1,18-diamino-6-(((S)-1-amino-1-oxo-3-phenylpropan-2-yl)carbamoyl)-12-(3-amino-3-oxopropyl)-1-imino-9-methyl-8,11,14,18-tetraoxo-2,7,10,13-tetraazaoctadecan-15-yl)carbamoyl)-9-(4-hydroxybenzyl)-6-(hydroxymethyl)-5,8,11,14,21-pentaoxo-4,7,10,13,20-pentaazaoctacosanoic acid] (H-[His(Trt)]K(Octanoyl)FYSDQQARF-NH2)
16 ± 2.2 | CCCCCCCC(=O)NCCCC[C@H](NC(=O)[C@@H](N)CC1=CNCN1CCC1CCCCC1)C(=O)N[C@@H](Cc1ccccc1)C(=O)N[C@@H](Cc1ccc(O)cc1)C(=O)O [HKFY-7, N2-((S)-2-amino-3-(3-(2-cyclohexylethyl)-2,3-dihydro-1H-imidazol-4-yl)propanoyl)-N6-octanoyl-L-lysyl-L-phenylalanyl-L-tyrosine]
17.3±1.22 | CCCCCCCC(=O)NCCCC[C@H](NC(=O)[C@@H](N)CC1=CN(CCC2CCCCC2)CN1CCC1CCCCC1)C(=O)N[C@@H](Cc1ccccc1)C(=O)N[C@@H](Cc1ccc(O)cc1)C(=O)O [HKFY-8, N2-((S)-2-amino-3-(1,3-bis(2-cyclohexylethyl)-2,3-dihydro-1H-imidazol-4-yl)propanoyl)-N6-octanoyl-L-lysyl-L-phenylalanyl-L-tyrosine]
7.72 ± 0.57 | CCCCCCCCCCCC(=O)NCCCC[C@H](NC(=O)[C@@H](N)Cc1cn(C(c2ccccc2)(c2ccccc2)c2ccccc2)cn1)C(=O)N[C@@H](Cc1ccccc1)C(=O)N[C@@H](Cc1ccc(O)cc1)C(=O)O [HKFY-25, N6-dodecanoyl-N2-(Nt-trityl-L-histidyl)-L-lysyl-L-phenylalanyl-L-tyrosine] (H-[His(Trt)]K(Lauroyl)FY-OH)
25.7 ± 2.4 | C=C(CCCCCCC)NCCCC[C@H](NC(=O)[C@@H](N)Cc1cn(C(c2ccccc2)(c2ccccc2)c2ccccc2)cn1)C(=O)N[C@H](Cc1ccc(Cl)cc1)C(=O)N[C@@H](Cc1ccc(O)cc1)C(=O)O [HKFY-13, ((R)-2-((S)-2-((S)-2-amino-3-(1-trityl-1H-imidazol-4-yl)propanamido)-6-(non-1-en-2-ylamino)hexanamido)-3-(4-chlorophenyl)propanoyl)-L-tyrosine]
16 ± 1.5 | CCCCCCCC(=O)NCCCC[C@H](NC(=O)[C@@H](N)Cc1cn(C(c2ccccc2)c2ccc(OC)cc2)cn1)C(=O)N[C@H](Cc1ccc(C)cc1)C(=O)N[C@@H](Cc1ccc(O)cc1)C(=O)O (stereo partly drawn) [HKFY-64, ((2R)-2-((2S)-2-((2S)-2-amino-3-(1-((4-methoxyphenyl)(phenyl)methyl)-1H-imidazol-4-yl)propanamido)-6-octanamidohexanamido)-3-(p-tolyl)propanoyl)-L-tyrosine]
15 ± 1.87 | CCCCCCCC(=O)NCCCC[C@H](NC(=O)[C@H](Cc1cn(C(c2ccccc2)(c2ccccc2)c2ccccc2)cn1)NC(=O)CCCC[C@@H]1SC[C@@H]2NC(=O)N[C@@H]21)C(=O)N[C@@H](Cc1ccccc1)C(=O)N[C@@H](Cc1ccc(O)cc1)C(=O)O [HKFY-2, N6-octanoyl-N2-(Na-(5-((3aS,4S,6aR)-2-oxohexahydro-1H-thieno[3,4-d]imidazol-4-yl)pentanoyl)-Nt-trityl-L-histidyl)-L-lysyl-L-phenylalanyl-L-tyrosine] (Biotin-[His(Trt)]K(Octanoyl)FY-OH)
12.1 ± 0.02 | CCCCCCCC(=O)NCCCC[C@H](NC(=O)[C@@H](N)Cc1cn(C(c2ccccc2)(c2ccccc2)c2ccccc2)cn1)C(=O)N[C@@H](Cc1ccccc1)C(=O)N[C@@H](Cc1ccc(O)cc1)C(=O)N[C@@H](CCC(N)=O)C(=O)N[C@@H](CC(N)=O)C(=O)N[C@@H](CCC(N)=O)C(=O)N[C@@H](C)C(=O)N[C@@H](CCCNC(=N)N)C(=O)N[C@@H](Cc1ccccc1)C(N)=O [HKFY-43, (S)-N1-((S)-1-(((S)-1-(((S)-1-amino-1-oxo-3-phenylpropan-2-yl)amino)-5-guanidino-1-oxopentan-2-yl)amino)-1-oxopropan-2-yl)-2-((2S,5S,8S,11S,14S)-2-(2-amino-2-oxoethyl)-14-((S)-2-amino-3-(1-trityl-1H-imidazol-4-yl)propanamido)-5-(3-amino-3-oxopropyl)-11-benzyl-8-(4-hydroxybenzyl)-4,7,10,13,20-pentaoxo-3,6,9,12,19-pentaazaheptacosanamido)pentanediamide] (H-[His(Trt)]K(Octanoyl)FYQNQARF-NH2)
22.95 ± 2.58 | CCCCCCCC(=O)NCCCC[C@H](NC(=O)[C@@H](N)Cc1cn(C(c2ccccc2)(c2ccccc2)c2ccccc2)cn1)C(=O)N[C@H](Cc1ccc(F)cc1)C(=O)N[C@@H](Cc1ccc(O)cc1)C(=O)O [HKFY-28, ((R)-2-((S)-2-((S)-2-amino-3-(1-trityl-1H-imidazol-4-yl)propanamido)-6-octanamidohexanamido)-3-(4-fluorophenyl)propanoyl)-L-tyrosine] (H-[His(Trt)]K(Octanoyl)[dPhe(4-F)]Y-OH)
16 ± 1.7 | CCCCCCCC(=O)NCCCC[C@H](NC(=O)[C@@H](N)Cc1cn(C(c2ccccc2)(c2ccccc2)c2ccc(C)cc2)cn1)C(=O)N[C@@H](Cc1ccccc1)C(=O)N[C@@H](Cc1ccc(O)cc1)C(=O)O [HKFY-5, N2-(Nt-(diphenyl(p-tolyl)methyl)-L-histidyl)-N6-octanoyl-L-lysyl-L-phenylalanyl-L-tyrosine]
20 ± 0.47 | CCCCCCCC(=O)NCCCC[C@H](NC(=O)[C@@H](N)Cc1cn(C(c2ccccc2)(c2ccccc2)c2ccccc2)cn1)C(=O)N[C@@H](Cc1ccccc1)C(=O)N[C@@H](Cc1ccc(O)cc1)C(=O)N[C@@H](Cc1c[nH]c2ccccc12)C(=O)O [HKFY-44, N6-octanoyl-N2-(Nt-trityl-L-histidyl)-L-lysyl-L-phenylalanyl-L-tyrosyl-L-tryptophan] (H-[His(Trt)]K(Octanoyl)FYW-OH)
21.3 ± 1.8 | CCCCCCCC(=O)NCCCC[C@H](NC(=O)[C@@H](N)Cc1cn([C@H](c2ccccc2)c2ccc(C)cc2)cn1)C(=O)N[C@@H](Cc1ccccc1)C(=O)N[C@@H](Cc1ccc(O)cc1)C(=O)O [HKFY-22, N6-octanoyl-N2-(Nt-((R)-phenyl(p-tolyl)methyl)-L-histidyl)-L-lysyl-L-phenylalanyl-L-tyrosine]
20.51 ± 0.57 | CCCCCCCC(=O)NCCCC[C@H](NC(=O)[C@@H](N)Cc1cn(C(c2ccccc2)(c2ccccc2)c2ccccc2)cn1)C(=O)N[C@@H](Cc1ccccc1)C(=O)N[C@@H](Cc1ccc(O)cc1)C(=O)O [HKFY-1, N6-octanoyl-N2-(Nt-trityl-L-histidyl)-L-lysyl-L-phenylalanyl-L-tyrosine] (H-[His(Trt)]K(Octanoyl)FY-OH)

Same assay, conditions: comment on Table 3

Compound | activity level for GPR39 (in words)
CCCCCCCC(=O)NCCCC[C@H](NC(=O)[C@@H](N)Cc1cn(C(c2ccccc2)c2ccc(OC)cc2)cn1)C(=O)N[C@H](Cc1ccc(C)cc1)C(=O)N[C@@H](Cc1ccc(O)cc1)C(=O)O (stereo partly drawn) [HKFY-64, ((2R)-2-((2S)-2-((2S)-2-amino-3-(1-((4-methoxyphenyl)(phenyl)methyl)-1H-imidazol-4-yl)propanamido)-6-octanamidohexanamido)-3-(p-tolyl)propanoyl)-L-tyrosine] | higher activity level than other HKFY derivatives

Source: patent publication US20250340591A1, “COMPOSITION FOR PREVENTING OR TREATING INFLAMMATORY BOWEL DISEASE CONTAINING NOVEL COMPOUND” (ANYGEN CO., LTD., priority 2021, published 2025)
